Test results published in US20210309657A1, “TRICYCLIC COMPOUNDS FOR THE TREATMENT AND PROPHYLAXIS OF BACTERIAL INFECTION” (Hoffmann-La Roche Inc., priority 2018, published 2021).
≈ marks a conversion by molar mass, not a printed value. Like-named read-outs stand apart in the source and are kept apart here.

Columns and labels:
S. aureus (ATCC29213) = assay: 50% growth inhibitory concentration (IC50) determination assay, S. aureus; assay type: cell-based; details: Staphylococcus aureus, growth inhibition, Iso-Sensitest broth, OD 600 nm over 16h, <0.098 = the detection limit
Experimental: (§1) The in vitro antimicrobial activity of the compounds against S. aureus (ATCC29213), K. pneumoniae (ATCC10031), and A. baumannii (ATCC17978), was determined according to the following procedure: The assay used a 10-points Iso-Sensitest broth medium to measure quantitatively the in vitro activity of the compounds against S. aureus ATCC29213, K. pneumoniae ATCC 10031, and A. baumannii ATCC17978. Stock compounds in DMSO were serially two-fold diluted (range from 50 to 0.097 μM final concentration) in 384 wells microtiter plates and inoculated with 49 μL the bacterial suspension in Iso-Sensitest broth medium to have a final cell concentration of ˜5×10^5 CFU/mL in a final volume/well of 50 μL/well. Microtiter plates were incubated at 35±2° C. Bacterial cell growth was determined with the measurement of optical density at λ=600 nm each 20 minutes over a time course of 16h. Growth inhibition was calculated during the logarithmic growth of the bacterial cells with determination of the concentration inhibiting 50% (IC50) of the growth. Compounds of the present invention were tested for their concentration inhibiting 50% (IC50). The data of IC50 over S. aureus (ATCC29213), K. pneumoniae (ATCC10031), and A. baumannii (ATCC17978) are illustrated in Table 4.

A. baumannii (ATCC17978) = assay: 50% growth inhibitory concentration (IC50) determination assay, A. baumannii; assay type: cell-based; details: Acinetobacter baumannii, growth inhibition, Iso-Sensitest broth, OD 600 nm over 16h, <0.098 = the detection limit
Experimental: as §1

[1] = Lyophilisation solubility assay (LYSA); assay type: physicochemical; details: thermodynamic from solid
Experimental: The solubility of compounds of present invention was assessed by LYSA assay. Samples were prepared in duplicate from 10 mM DMSO stock solutions ([…]) diluted in 30 μL pure DMSO. After evaporation of DMSO with a centrifugal vacuum evaporator, the residue was dissolved in 0.05 M phosphate buffer (150 μL, pH 6.5), which was stirred for one hour and shook for two hours. After one night, the solution was filtered using a microtiter filter plate. Then the filtrate and its 1/10 dilution were analyzed by HPLC-UV. In addition, a four-point calibration curve was prepared from the 10 mM stock solutions and used for the solubility determination of the compounds.

[2] = system: K. pneumoniae (ATCC10031); assay: 50% growth inhibitory concentration (IC50) determination assay, K. pneumoniae; assay type: cell-based; details: Klebsiella pneumoniae, growth inhibition, Iso-Sensitest broth, OD 600 nm over 16h, <0.098 = the detection limit
Experimental: as §1

[3] = aqueous buffer, 0.05 M phosphate buffer, pH 6.5, HPLC-UV, <1.0 = the detection limit, read-out: Lysa

Row | SMILES | IC50 (S. aureus (ATCC29213)) | IC50 (A. baumannii (ATCC17978)) | solubility thermodynamic [1, 3] | IC50 [2] | solubility thermodynamic ([1]; pH 6.5, aqueous buffer)
1 | CNc1cc(F)c(F)c2c1[nH]c1ncc(-c3cnc(OC)nc3)c(N3CCC(F)(CN)C3)c12 (stereo not drawn) [Example 1.28, 4-[3-(aminomethyl)-3-fluoro-pyrrolidin-1-yl]-5,6-difluoro-3-(2-methoxypyrimidin-5-yl)-N-methyl-9H-pyrido[2,3-b]indol-8-amine] | 227 nM | 115 nM | 88 µg/mL (≈ 192 µM) | < 98 nM | 
2 | CNc1cc(F)c(F)c2c1[nH]c1ncc(-c3cncc(C#N)c3)c(N3CC4CC4(CN)C3)c12 (stereo not drawn) [Example 1.32, 5-[4-[1-(Aminomethyl)-3-azabicyclo[3.1.0]hexan-3-yl]-5,6-difluoro-8-(methylamino)-9H-pyrido[2,3-b]indol-3-yl]pyridine-3-carbonitrile] | 1240 nM | 472 nM | 10 µg/mL (≈ 22.4 µM) | < 98 nM | 
3 | CNc1cc(F)c(F)c2c1[nH]c1ncc(-c3cncc(C#N)c3)c(N3CCCC(N)C3)c12 (stereo not drawn) [Example 1.46, 5-(4-(3-Aminopiperidin-1-yl)-5,6-difluoro-8-(methylamino)-9H-pyrido[2,3-b]indol-3-yl)nicotinonitrile] | 206 nM | 387 nM | 17 µg/mL (≈ 39.2 µM) | < 98 nM | 
4 | CNc1cc(F)c(F)c2c1[nH]c1ncc(-c3cnc(OC)nc3)c(N3CCCC(N)C3)c12 (stereo not drawn) [Example 1.47, 4-(3-Aminopiperidin-1-yl)-5,6-difluoro-3-(2-methoxypyrimidin-5-yl)-N-methyl-9H-pyrido[2,3-b]indol-8-amine] | 275 nM | 443 nM | 19 µg/mL (≈ 43.2 µM) | < 98 nM | 
5 | CCNc1cc(F)c(F)c2c1[nH]c1ncc(-c3cnc(OC)nc3)c(N3CCC[C@@H](CN)C3)c12 [Example 1.53, (S)-4-(3-(Aminomethyl)piperidin-1-yl)-N-ethyl-5,6-difluoro-3-(2-methoxypyrimidin-5-yl)-9H-pyrido[2,3-b]indol-8-amine] | 394 nM | < 98 nM | 241 µg/mL (≈ 515 µM) | < 98 nM | 
6 | CNc1cc(F)c(F)c2c1[nH]c1ncc(-c3cncc(C#N)c3)c(N3CCCC(F)(CN)C3)c12 (stereo not drawn) [Example 1.54, 5-[4-[3-(Aminomethyl)-3-fluoro-1-piperidyl]-5,6-difluoro-8-(methylamino)-9H-pyrido[2,3-b]indol-3-yl]pyridine-3-carbonitrile] | 477 nM | < 98 nM | 39 µg/mL (≈ 83.8 µM) | < 98 nM | 
7 | CNc1cc(F)c(F)c2c1[nH]c1ncc(-c3cnc(OC)nc3)c(N3C4CNCC3C4)c12 [Example 1.57, 4-(3,6-Diazabicyclo[3.1.1]heptan-6-yl)-5,6-difluoro-3-(2-methoxypyrimidin-5-yl)-N-methyl-9H-pyrido[2,3-b]indol-8-amine] | 286 nM | 314 nM |  | < 98 nM | 91 µg/mL (≈ 208 µM)
8 | CCOc1ncc(-c2cnc3[nH]c4c(NC)cc(F)cc4c3c2N2C3CNCC2C3)cn1 [Example 1.59, 4-(3,6-Diazabicyclo[3.1.1]heptan-6-yl)-3-(2-ethoxypyrimidin-5-yl)-6-fluoro-N-methyl-9H-pyrido[2,3-b]indol-8-amine] | 631 nM | 499 nM |  | < 98 nM | 395 µg/mL (≈ 911 µM)
9 | CNc1cc(F)cc2c1[nH]c1ncc(-c3cnc(OC)nc3)c(N3C4CNCC3C4)c12 [Example 1.61, 4-(3,6-Diazabicyclo[3.1.1]heptan-6-yl)-6-fluoro-3-(2-methoxypyrimidin-5-yl)-N-methyl-9H-pyrido[2,3-b]indol-8-amine] | 650 nM | 792 nM |  | < 98 nM | 62 µg/mL (≈ 148 µM)
10 | CNc1cc(F)c(F)c2c1[nH]c1ncc(-c3cnc(C4(C(=O)O)CC4)nc3)c(N(C)C)c12 [Example 2.02, 1-[5-[4-(dimethylamino)-5,6-difluoro-8-(methylamino)-9H-pyrido[2,3-b]indol-3-yl]pyrimidin-2-yl]cyclopropanecarboxylic acid] | 474 nM | < 98 nM | 160 µg/mL (≈ 365 µM) | 391 nM | 
11 | CNc1c(F)c(F)cc2c1[nH]c1ncc(-c3cnc(C4(C(=O)O)CC4)nc3)c(N(C)C)c12 [Example 2.03, 1-(5-(4-(dimethylamino)-6,7-difluoro-8-(methylamino)-9H-pyrido[2,3-b]indol-3-yl)pyrimidin-2-yl)cyclopropanecarboxylic acid] | 1110 nM | < 98 nM | 410 µg/mL (≈ 935 µM) | 189 nM | 
12 | CNc1cc(F)c(F)c2c1[nH]c1ncc(-c3cnc(OC)nc3)c(N3CC(CN)C(F)(F)C3)c12 (stereo not drawn) [Example 3.03, 4-[4-(aminomethyl)-3,3-difluoro-pyrrolidin-1-yl]-5,6-difluoro-3-(2-methoxypyrimidin-5-yl)-N-methyl-9H-pyrido[2,3-b]indol-8-amine] | 559 nM | 411 nM | 125 µg/mL (≈ 263 µM) | < 98 nM | 
13 | CNc1cc(F)c(F)c2c1[nH]c1ncc(-c3cncc(C#N)c3)c(N3CC(CN)C(F)(F)C3)c12 (stereo not drawn) [Example 3.04, 5-[4-[4-(aminomethyl)-3,3-difluoro-pyrrolidin-1-yl]-5,6-difluoro-8-(methylamino)-9H-pyrido[2,3-b]indol-3-yl]pyridine-3-carbonitrile] | 649 nM | 485 nM | 16 µg/mL (≈ 34.1 µM) | < 98 nM | 
14 | CNc1cc(F)cc2c1[nH]c1ncc(-c3cnc(OC)nc3)c(C3(CN)CC3)c12 [Example 4.01, 4-(1-(Aminomethyl)cyclopropyl)-6-fluoro-3-(2-methoxypyrimidin-5-yl)-N-methyl-9H-pyrido[2,3-b]indol-8-amine] | 631 nM | 847 nM | > 575 µg/mL | < 98 nM | 
15 | CNc1cc(F)c(F)c2c1[nH]c1ncc(-c3cnc(C)nc3)c(N3C[C@H]4C[C@@H]3C[C@H]4N)c12 [GP-6, reference compound] | < 98 nM | < 98 nM | < 1 µg/mL | < 98 nM | 
